This is an account of results in patent US20090221653A1, “7-(2-amino-1-hydroxy-ethyl)-4-hydroxybenzothiazol-2(3H)-one-derivatives as beta2 adrenoreceptor agonists” (AstraZeneca AB, priority 2005, published 2009).

Where a name gives a salt, the structure may show the parent alone. Read-outs that look alike come from different tables or passages of the source.

The target in one test is T1, Adrenergic β2 (Homo sapiens, UniProt P07550).
T1 construct: endogenous in cells; host or cells: H292 cells
Description: Alternative Adrenergic β2 Mediated cAMP Production in H292 cells (AlphaScreen cAMP detection). The test is classed as cell-based. The following applies: for EC50: cAMP, test compounds incubated 60 minutes, 300 μM rolipram, read-out: β2 pEC50 (converted); for β2 Int Act: fraction relative to the maximum activity determined for formoterol, 60 minutes incubation. As to the method:
H292 cells were grown in 225 cm2 flasks incubator at 37° C., 5% CO2 in RPMI medium containing, 10% (v/v) FBS (foetal bovine serum) and 2 mM L-glutamine.
Adherent H292 cells were removed from tissue culture flasks by treatment with Accutase™ cell detachment solution for 15 minutes. Flasks were incubated for 15 minutes in a humidified incubator at 37° C., 5% CO2. Detached cells were re-suspended in RPMI media (containing 10% (v/v) FBS and 2 mM L-glutamine) at 0.05×10^6 cells per mL. 5000 cells in 100 μL were added to each well of a tissue-culture-treated 96-well plate and the cells incubated overnight in a humidified incubator at 37° C., 5% CO2. The culture media was removed and cells were washed twice with 100 μL assay buffer and replaced with 50 μL assay buffer (HBSS solution containing 10 mM HEPES pH7.4 and 5 mM glucose). […] Cells were incubated with rolipram for 10 minutes after which time test compounds were added and the cells were incubated for 60 minutes at room temperature. […] The reaction was stopped by removing supernatants, washing once with 100 μL assay buffer and replacing with 50 μL lysis buffer. The cell monolayer was frozen at −80° C. for 30 minutes (or overnight).
The concentration of cAMP (cyclic adenosine monophosphate) in the cell lysate was determined using AlphaScreen™ methodology. The frozen cell plate was thawed for 20 minutes on a plate shaker then 10 μL of the cell lysate was transferred to a 96-well white plate. 40 μL of mixed AlphaScreen™ detection beads pre-incubated with biotinylated cAMP, was added to each well and the plate incubated at room temperature for 10 hours in the dark. The AlphaScreen™ signal was measured using an EnVision spectrophotometer (Perkin-Elmer Inc.) with the recommended manufacturer's settings. cAMP concentrations were determined by reference to a calibration curve determined in the same experiment using standard cAMP concentrations. Concentration response curves for agonists were constructed and data was fitted to a four parameter logistic equation to determine both the pEC50 and Intrinsic Activity.
In general terms: Alpha assays give light when donor and acceptor beads are brought close together.

The target of test [1] is T2, recombinant human α1D receptor (Homo sapiens, UniProt P25100).
T2 construct: expressed in transfected cells; host or cells: HEK293
T2 sequence (P25100 1-572): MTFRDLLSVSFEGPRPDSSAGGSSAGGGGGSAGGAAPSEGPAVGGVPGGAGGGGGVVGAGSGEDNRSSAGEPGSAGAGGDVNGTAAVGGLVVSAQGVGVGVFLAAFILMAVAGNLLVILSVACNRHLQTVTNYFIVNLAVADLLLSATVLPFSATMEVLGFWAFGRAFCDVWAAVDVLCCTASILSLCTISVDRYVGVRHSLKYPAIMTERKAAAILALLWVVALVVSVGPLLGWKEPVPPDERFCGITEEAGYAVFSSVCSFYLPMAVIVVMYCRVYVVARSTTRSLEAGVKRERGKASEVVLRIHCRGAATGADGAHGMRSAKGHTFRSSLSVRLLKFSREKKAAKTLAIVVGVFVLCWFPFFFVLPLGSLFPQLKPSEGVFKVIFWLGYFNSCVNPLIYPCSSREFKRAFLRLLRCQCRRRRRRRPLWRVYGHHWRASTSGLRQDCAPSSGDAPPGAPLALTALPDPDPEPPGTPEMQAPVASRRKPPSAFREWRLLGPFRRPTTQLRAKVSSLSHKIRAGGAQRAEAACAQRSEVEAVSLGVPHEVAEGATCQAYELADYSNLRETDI
Description: Adrenergic α1D selectivity assay, inhibition of [3H]-prazosin binding. The conditions noted are these: HEK293 membranes, [3H]-prazosin 0.3 nM; read-out: α1 bind pIC50 (converted). The procedure:
Membranes were prepared from human embryonic kidney 293 (HEK293) cells expressing recombinant human α1D receptor. These were diluted in Assay Buffer (50 mM HEPES, 1 mM EDTA, 0.1% gelatin, pH 7.4) to provide a final concentration of membranes that gave a clear window between maximum and minimum specific binding.
(§1) Assays were performed in U-bottomed 96-well polypropylene plates. 10 μL [^3H]-prazosin (0.3 nM final concentration) and 10 μL of test compound (10× final concentration) were added to each test well. For each assay plate 8 replicates were obtained for [^3H]-prazosin binding in the presence of 10 μL vehicle (10% (v/v) DMSO in Assay Buffer; defining maximum binding) or 10 μL BMY7378 (10 μM final concentration; defining non-specific binding (NSB)). Membranes were then added to achieve a final volume of 100 μL. The plates were incubated for 2 hours at room temperature and then filtered onto PEI coated GF/B filter plates, pre-soaked for 1 hour in Assay Buffer, using a 96-well plate Tomtec cell harvester. Five washes with 250 μL wash buffer (50 mM HEPES, 1 mM EDTA, pH 7.4) were performed at 4° C. to remove unbound radioactivity. The plates were dried then sealed from underneath using Packard plate sealers and MicroScint-O (50 μL) was added to each well. The plates were sealed (TopSeal A) and filter-bound radioactivity was measured with a scintillation counter (TopCount, Packard BioScience) using a 3-minute counting protocol.
(§2) Total specific binding (B0) was determined by subtracting the mean NSB from the mean maximum binding. NSB values were also subtracted from values from all other wells.

Test [2] concerns the target T3, recombinant human adrenergic beta 1 receptors (Homo sapiens, UniProt P08588).
T3 construct: purchased Euroscreen
Nature of the test: Adrenergic β1 selectivity assay, inhibition of [125I]-Iodocyanopindolol binding. As to the method: Membranes containing recombinant human adrenergic beta 1 receptors were obtained from Euroscreen. These were diluted in Assay Buffer (50 mM HEPES, 1 mM EDTA, 120 mM NaCl, 0.1% gelatin, pH 7.4) to provide a final concentration of membranes that gave a clear window between maximum and minimum specific binding.
as §1, with “10 μL [^3H]-prazosin (0.3 nM final concentration) and 10 μL of test compound (10× final concentration) were added to each test well. For each assay plate 8 replicates were obtained for [^3H]-prazosin binding in the presence of 10 μL vehicle (10% (v/v) DMSO in Assay Buffer; defining maximum binding) or 10 μL BMY7378 (10 μM final concentration; defining non-specific binding (NSB)).” left out, “EDTA, 120 mM NaCl,” for “EDTA,”
as §2

The target in test [3] is T4, recombinant human Dopamine Subtype D2s receptors (Homo sapiens, UniProt P14416).
T4 construct: purchased Perkin Elmer
T4 sequence (P14416 1-414 isoform P14416-2): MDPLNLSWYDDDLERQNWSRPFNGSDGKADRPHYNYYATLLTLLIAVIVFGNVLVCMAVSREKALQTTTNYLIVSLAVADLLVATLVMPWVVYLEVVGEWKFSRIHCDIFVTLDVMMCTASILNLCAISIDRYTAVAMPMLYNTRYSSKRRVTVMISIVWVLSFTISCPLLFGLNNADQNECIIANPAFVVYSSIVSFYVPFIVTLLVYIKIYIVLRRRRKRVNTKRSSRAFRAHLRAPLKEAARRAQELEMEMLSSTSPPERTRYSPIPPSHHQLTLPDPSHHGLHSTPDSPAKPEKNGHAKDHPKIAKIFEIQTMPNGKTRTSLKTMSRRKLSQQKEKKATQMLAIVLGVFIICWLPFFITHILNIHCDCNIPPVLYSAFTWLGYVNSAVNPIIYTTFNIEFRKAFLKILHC
Nature of the test: Dopamine D2 selectivity assay, inhibition of [3H]-spiperone binding. The conditions noted are these: membranes, [3H]-spiperone 0.16 nM; read-out: D2 bind pIC50 (converted). As to the method: Membranes containing recombinant human Dopamine Subtype D2s receptors were obtained from Perkin Elmer. These were diluted in Assay Buffer ([…] HEPES, 1 mM EDTA, 120 mM NaCl, 0.1% gelatin, pH 7.4) to provide a final concentration of membranes that gave a clear window between maximum and minimum specific binding.
Assays were performed in U-bottomed 96-well polypropylene plates. […] For each assay plate 8 replicates were obtained for [^3H]-spiperone binding in the presence of 30 μL vehicle (10% (v/v) DMSO in Assay Buffer; defining maximum binding) or 30 μL Haloperidol (10 μM final concentration; defining non-specific binding (NSB)). Membranes were then added to achieve a final volume of 300 μL. The plates were incubated for 2 hours at room temperature and then filtered onto PEI coated GF/B filter plates, pre-soaked for 1 hour in Assay Buffer, using a 96-well plate Tomtec cell harvester. Five washes with 250 μL wash buffer (50 mM HEPES, 1 mM EDTA, 120 mM NaCl, pH 7.4) were performed at 4° C. to remove unbound radioactivity. The plates were dried then sealed from underneath using Packard plate sealers and MicroScint-O (50 μL) was added to each well. The plates were sealed (TopSeal A) and filter-bound radioactivity was measured with a scintillation counter (TopCount, Packard BioScience) using a 3-minute counting protocol. Total specific binding (B0) was determined by subtracting the mean NSB from the mean maximum binding. NSB values were also subtracted from values from all other wells.

The mark [4] stands for this setting: membranes, [125I]-Iodocyanopindolol, read-out: β1 bind pIC50 (converted).

T3 sequence (P08588 whole entry): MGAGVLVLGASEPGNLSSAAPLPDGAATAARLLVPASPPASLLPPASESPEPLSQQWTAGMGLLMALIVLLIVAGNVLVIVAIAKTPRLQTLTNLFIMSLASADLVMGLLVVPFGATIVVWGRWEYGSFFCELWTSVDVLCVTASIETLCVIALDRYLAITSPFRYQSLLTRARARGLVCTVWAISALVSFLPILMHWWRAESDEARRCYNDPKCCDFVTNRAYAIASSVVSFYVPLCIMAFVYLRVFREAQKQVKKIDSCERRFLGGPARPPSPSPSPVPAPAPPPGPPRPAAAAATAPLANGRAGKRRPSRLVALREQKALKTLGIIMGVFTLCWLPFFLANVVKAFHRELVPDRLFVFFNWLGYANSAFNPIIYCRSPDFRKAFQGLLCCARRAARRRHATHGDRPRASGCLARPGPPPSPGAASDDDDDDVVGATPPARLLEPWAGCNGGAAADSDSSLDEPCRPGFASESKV
T1 sequence (P07550 whole entry): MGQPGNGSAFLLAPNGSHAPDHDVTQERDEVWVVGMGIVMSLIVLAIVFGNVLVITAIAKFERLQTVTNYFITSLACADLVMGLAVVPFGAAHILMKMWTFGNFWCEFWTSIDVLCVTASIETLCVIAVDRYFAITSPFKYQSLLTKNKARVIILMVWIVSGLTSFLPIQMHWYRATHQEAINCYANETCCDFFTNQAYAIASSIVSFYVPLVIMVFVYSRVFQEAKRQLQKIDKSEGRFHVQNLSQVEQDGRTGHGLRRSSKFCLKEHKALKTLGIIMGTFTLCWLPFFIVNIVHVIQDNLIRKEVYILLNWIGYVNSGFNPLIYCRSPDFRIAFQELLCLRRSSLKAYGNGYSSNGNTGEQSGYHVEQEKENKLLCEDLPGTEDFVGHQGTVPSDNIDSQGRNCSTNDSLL

As for `CC(CNCCCSCCNC[C@H](O)c1ccc(O)c2[nH]c(=O)sc12)c1ccccc1` (mixture of isomers) [Example 44, (+/−)-7-[(1R)-2-({2-[(3-{[2-(phenyl)propyl]amino}propyl)thio]ethyl}amino)-1-hydroxyethyl]-4-hydroxy-1,3-benzothiazol-2(3H)-one dihydrochloride], the EC50 at Adrenergic β2 was 0.631 nM. The “β2 Int Act” value on Adrenergic β2 stood at 0.8. Further, the IC50 in test [1] was 398 nM; in test [2] (setting [4]), 79.4 nM; in test [3], 12600 nM.

`N[C@@H](COCCCSCCNC[C@H](O)c1ccc(O)c2[nH]c(=O)sc12)c1ccccc1` [Example 24, 7-((1R)-2-{[2-({3-[(2R)-2-Amino-2-phenylethoxy]propyl}thio)ethyl]amino}-1-hydroxyethyl)-4-hydroxy-1,3-benzothiazol-2(3H)-one]: the EC50 at Adrenergic β2 was 0.398 nM. In addition, the “β2 Int Act” value at Adrenergic β2 is 0.8. Moreover, the IC50 was 158 nM in test [1], 79.4 nM in test [2] (setting [4]) and 631 nM in test [3].

On to `C[C@@H](CNCCSCCCNC[C@H](O)c1ccc(O)c2[nH]c(=O)sc12)c1ccccc1` [Example 27, 4-Hydroxy-7-[(1R)-1-hydroxy-2-({3-[(2-{[(2R)-2-phenylpropyl]amino}ethyl)thio]propyl}amino)ethyl]-1,3-benzothiazol-2(3H)-one], for which the EC50 at Adrenergic β2 was 1 nM. Further, the “β2 Int Act” value at Adrenergic β2 stood at 1. The IC50 in test [1] is 126 nM; in test [2] (setting [4]), 63.1 nM; in test [3], 1000 nM.

On to `C[C@H](CNCCSCCCNC[C@H](O)c1ccc(O)c2[nH]c(=O)sc12)c1ccccc1` [Example 29, 4-Hydroxy-7-[(1R)-1-hydroxy-2-({3-[(2-{[(2S)-2-phenylpropyl]amino}ethyl)thio]propyl}amino)ethyl]-1,3-benzothiazol-2(3H)-one], for which the EC50 on Adrenergic β2 was 0.316 nM. Also, the “β2 Int Act” value at Adrenergic β2 turned out to be 0.9. Further, the results for the IC50 in test [1], in test [2] (setting [4]) and in test [3] were 100 nM, 25.1 nM and 3980 nM, respectively.

In the case of `O=c1[nH]c2c(O)ccc([C@@H](O)CNCCCSCCNCCc3ccccc3Cl)c2s1` [Example 31, 7-[(1R)-2-({3-[(2-{[2-(2-Chlorophenyl)ethyl]amino}ethyl)thio]propyl}amino)-1-hydroxyethyl]-4-hydroxy-1,3-benzothiazol-2(3H)-one], the EC50 on Adrenergic β2 was 0.398 nM. The “β2 Int Act” value at Adrenergic β2 is given as 0.8. Also, the IC50 was 12.6 nM in test [1], 39.8 nM in test [2] (setting [4]) and 1580 nM in test [3].

As to `O=c1[nH]c2c(O)ccc([C@@H](O)CNCCCSCCNCCc3cccc(Cl)c3)c2s1` [Example 33, 7-[(1R)-2-({3-[(2-{[2-(3-Chlorophenyl)ethyl]amino}ethyl)thio]propyl}amino)-1-hydroxyethyl]-4-hydroxy-1,3-benzothiazol-2(3H)-one], the “β2 Int Act” value on Adrenergic β2 was found to be 1.1. For the same molecule, the figures for the IC50 in test [1] and in test [3] were 39.8 nM and 1000 nM, respectively.

For `O=c1[nH]c2c(O)ccc([C@@H](O)CNCCSCCCNCCc3cccc(Cl)c3Cl)c2s1` [Example 38, 7-[(1R)-2-({2-[(3-{[2-(2,3-Dichlorophenyl)ethyl]amino}propyl)thio]ethyl}amino)-1-hydroxyethyl]-4-hydroxy-1,3-benzothiazol-2(3H)-one dihydrochloride], on Adrenergic β2, the EC50 is 1.58 nM and the “β2 Int Act” value amounted to 0.9. Also, the IC50 in test [1] is 158 nM. In addition, the IC50 in test [3] was 398 nM.

Consider `O=c1[nH]c2c(O)ccc([C@@H](O)CNCCS(=O)(=O)CCCNCCc3cccc(Cl)c3)c2s1` [Example 42, 7-[(1R)-2-({2-[(3-{[2-(3-Chlorophenyl)ethyl]amino}propyl)sulfonyl]ethyl}amino)-1-hydroxyethyl]-4-hydroxy-1,3-benzothiazol-2(3H)-one dihydrochloride], for which the “β2 Int Act” value at Adrenergic β2 worked out at 1. Also, the figures for the IC50 in test [1], in test [2] and in test [3] were 126 nM, 794 nM and 10000 nM, respectively.

On to `C[C@@H](CNCCCSCCNC[C@H](O)c1ccc(O)c2[nH]c(=O)sc12)c1ccccc1` [Example 46, (R)-(+)-7-[(1R)-2-({2-[(3-{[2-(phenyl)propyl]amino}propyl)thio]ethyl}amino)-1-hydroxyethyl]-4-hydroxy-1,3-benzothiazol-2(3H)-one dihydrochloride], for which, at Adrenergic β2, the EC50 is 0.631 nM. Further, the “β2 Int Act” value at Adrenergic β2 worked out at 0.8. For the same molecule, the IC50 is 251 nM in test [1], 79.4 nM in test [2] (setting [4]) and 1260 nM in test [3].
